Laboratory results published in patent publication US7846970B2, “Hydroxycitric acid derivatives and skin external preparations containing the same” (Showa Denko K.K., priority 2004, dated 2010).

Legend:
Mouse 3T3-F442A cells [1] = assay: Triglyceride accumulation test (1), oil red staining; format: cell-based; conditions: 100 μM, 4 days, differentiated 3T3-F442A adipocytes
Description: Mouse 3T3-F442A cells (available from DAINIPPON PHARMACEUTICAL CO., LTD.) were disseminated on a 96-well microplate and were incubated at 37° C. and 5% CO2 over a period of 2 weeks using a DMEM culture medium (available from Invitrogen) containing 10% by mass of FCS.
(§1) After differentiation of most cells into adipocytes had been observed with a microscope, the culture medium was replaced with one that contained 100 μM of any one of the test articles (a) to (c). The incubation was continued for another 4 days. The control was incubated using a culture medium that contained no test articles.
After 4 days of incubation, the cells were washed three times with Dulbecco's PBS (−). The triglyceride accumulated in the cells was determined by oil red staining.

[2] = Skin permeation test (Test Example 1); format: in vitro ADME, minipig
Description: The above test articles, each 0.5% by mass, were dissolved separately in Dulbecco's PBS (−).
2-cm square skin pieces of minipig (Charles River Laboratories Inc. (United States of America)) were placed in the Netwell (manufactured by Corning Incorporated), and assay rings (Teflon® rings with a center opening) on which a silicon sealant had been applied were pressed and fixed to the epidermis of the skin. Subsequently, 2 ml of a skin culture medium (TOYOBO CO., LTD.) was added to a multiwell plate, and the Netwell was set such that skin lower portions would be soaked. Each of the test article solutions, 0.1 ml, was slowly poured into the opening of assay ring; when no leakage was confirmed, the units were sealed with multiplate seals and were allowed to stand in an incubator at 37° C. and 5% carbon dioxide.
After 4 hours, the test article solutions on the skin pieces were pipetted. The skin pieces were recovered from the Netwell, and distilled water in a washing bottle was poured thereover for washing. The assay rings were detached, and the central portions that had contacted with the solution were punched out with an 8 mm biopsy punch. The excised skin pieces were transferred to 1.5 ml tubes, and 1 ml of 0.5% trypsin solution was added to each tube. The trypsin solution was caused to permeate the skin piece for a day and a night at 4° C.
Next day, the trypsin solution was removed, and the skin pieces were washed three times each with 1 ml of distilled water and were heated in an incubator at 37° C. for 5 minutes, resulting in release of the epidermis. The epidermis that had been released and been floating was peeled with tweezers to separate the skin piece into the epidermis and the dermis. The epidermis and dermis were separately transferred to new 1.5 ml tubes and were heated in an incubator at 37° C. for 30 minutes.
Thereafter, the epidermis and the dermis were fed with 0.1 ml and 0.5 ml of distilled water, respectively, followed by freezing and thawing. […] Thus, a tissue extract was obtained.
400 μl of the reagent 4 was added to a sample tube containing 20 μl of the sample solution or the standard sample solution, followed by mixing. The mixture was allowed to stand at room temperature for at least 15 minutes. Thereafter, 40 μl of the reagent 3 was added and mixed together, and the mixture was allowed to stand at room temperature for at least 30 minutes. The absorbance at 750 nm was measured with a spectrophotometer, and the protein concentration in the sample solution was determined using a calibration curve obtained with the standard sample.

Mouse 3T3-F442A cells [3] = assay: Triglyceride accumulation test (3): lowest concentration at which TG/cell survival ratio is not more than 80; format: cell-based; conditions: lowest tested concentration with TG/cell survival ratio not more than 80 (control 100); 4 days
Description: Likewise in Test Example 2, mouse 3T3-F442A cells (available from DAINIPPON PHARMACEUTICAL CO., LTD.) were disseminated on a 96-well microplate and were incubated at 37° C. and 5% CO2 over a period of 2 weeks using a DMEM culture medium (available from Invitrogen) containing 10% by mass of FCS.
as §1, with “contained” for “contained 100 μM of”, “(a), (b) and (d)” for “(a)”, “(h) in an amount of 40 μM, 50 μM, 100 μM, 150 μM, 200 μM, 300 μM, 400 μM, 500 μM or […].” for “(c).”
After 4 days of incubation, the cells were washed three times with Dulbecco's PBS (−). The triglyceride accumulated in the cells, and the cell survival rate were measured in similar manners as in Test Example 3.

[4] = test system: Human white preadipocytes; assay: Test (2) of use in combination with caffeine and the like, triglyceride accumulation; format: cell-based; conditions: 50 μM, 4 days
Description: (§2) After differentiation into adipocytes had been observed, the culture medium was replaced with one that contained 50 μM of (b), or 100 μM of (i), or 50 μM of (j), or 50 μM and 100 μM of (b) and (i) respectively, or 50 μM and 50 μM of (b) and (j) respectively. The incubation was continued for another 4 days. The control was incubated using a culture medium that contained no test articles.

[5] = test system: Human white preadipocytes; assay: Cell survival rate, alamar blue (Test Example 3); format: cell-based; conditions: 4 days
Description: as §1, with “or 1 mM” for “of any one”, “article (a), or 10 μM, 25 μM or 50 μM of the test article (b).” for “articles (a) to (c).”
(§3) After 4 days of incubation, the cells were washed three times with Dulbecco's PBS (−). The triglyceride accumulated in the cells was determined by oil red staining. The cell survival rate was measured by a calorimetric method (570 nm) using alamar blue reagent (manufactured by Molecular Probe).

Mouse 3T3-F442A cells [6] = assay: Test (1) of use in combination with caffeine, triglyceride accumulation; format: cell-based; conditions: 0.05 mM (b) alone, which is the control (100%); 4 days
Description: Mouse 3T3-F442A cells were incubated in a similar manner as in Test Example 2. After differentiation into adipocytes had been observed, the culture medium was replaced with one that contained 0.05 mM and 0.1 mM of the test article (b) and the test article (i), respectively. The incubation was continued for another 4 days. The control was incubated using a culture medium that contained 0.05 mM of the test article (b).
After 4 days of incubation, the triglyceride accumulated in the cells was determined in a similar manner as in Test Example 2.

[7] = test system: Human white preadipocytes; assay: Triglyceride accumulation test (2), oil red staining; format: cell-based; conditions: 4 days
Description: as §1, with “or 1 mM” for “of any one”, “article (a), or 10 μM, 25 μM or 50 μM of the test article (b).” for “articles (a) to (c).”
as §3

[8] = test system: Human white preadipocytes; assay: Cell survival rate (Test Example 6); format: cell-based; conditions: 4 days, 50 μM
Description: as §2

[9] = test system: Human white preadipocytes; assay: Test for confirmation of breakdown of hydroxycitric acid derivative (amounts in cell extract, LC/MS); conditions: 1 mM test article, 5 days, human adipocytes
Description: (§4) Human white preadipocytes (available from Zen-Bio Inc.) were disseminated in two T-25 flasks and were incubated at 37° C. and 5% CO2 using a white preadipocyte culture medium (PM-1, available from Zen-Bio Inc.). After several days, microscopic observation confirmed that the cells had been confluent, and the medium was replaced with a human white preadipocyte differentiation medium (DM-1, available from Zen-Bio Inc.). After three days, the differentiation medium was changed to a white adipocyte medium (AM-1, available from Zen-Bio Inc.). Incubation was continued while renewing half of the white adipocyte medium every three days.
(§5) After differentiation into adipocytes had been observed, the culture media in the flasks were each replaced with one that contained 1 mM of the test article (a) or 0.05 mM of the test article (b). The incubation was continued for another 5 days.
(§6) After 5 days of incubation, the cells were released from the flask bottom by adding trypsin and were collected by centrifugation (at 1,000 rpm for 5 minutes). The cells collected were washed two times with Dulbecco's PBS (−), and were transferred to 1.5 ml tubes, followed by freezing and thawing. […]
(§7) The test article in the extract was determined by LC/MS, and the protein in the extract was determined by the Lowry method as described in Test Example 1.

[10] = test system: Human white preadipocytes
Description: as §4, §5, §6, §7

[11] = dermis, test article 0.5% by mass in Dulbecco's PBS (-), 0.1 ml, 4 hours, 37°C
[12] = epidermis, test article 0.5% by mass in Dulbecco's PBS (-), 0.1 ml, 4 hours, 37°C

Hydroxycitric acid-2-palmitate sodium salt [(b)]
Accumulated triglyceride amount (% relative to control) (Mouse 3T3-F442A cells [1]): 52 % relative to control
Determined value: amount of hydroxycitric acid-2-palmitate in dermis [2, 11]: 3.8 nmol/mg skin protein
Determined value: amount of hydroxycitric acid-2-palmitate in epidermis [2, 12]: 3.4 nmol/mg skin protein
Skin permeation (in words) ([2]; minipig skin, compared with (a)): can permeate the skin deeper into the dermis layer than hydroxycitric acid calcium salt (a)
Concentration for 20% reduction of TG amount relative to control (Mouse 3T3-F442A cells [3]): 50 µM
(1/2) × 100 (triglyceride amount / cell survival rate) [4]: 75
Accumulated triglyceride amount (% relative to control): 1 [4]: 75 % relative to control
Cell survival rate (% relative to control): 2 ([5]; 10 μM): 100 % relative to control
Cell survival rate (% relative to control): 2 ([5]; 25 μM): 101 % relative to control
Cell survival rate (% relative to control): 2 ([5]; 50 μM): 98 % relative to control
Accumulated triglyceride amount (% relative to control) (Mouse 3T3-F442A cells [6]): 100 % relative to control
(1/2) × 100 (triglyceride amount / cell survival rate) ([7]; 10 μM): 78
Accumulated triglyceride amount (% relative to control): 1 ([7]; 10 μM): 78 % relative to control
(1/2) × 100 (triglyceride amount / cell survival rate) ([7]; 25 μM): 71
Accumulated triglyceride amount (% relative to control): 1 ([7]; 25 μM): 72 % relative to control
(1/2) × 100 (triglyceride amount / cell survival rate) ([7]; 50 μM): 66
Accumulated triglyceride amount (% relative to control): 1 ([7]; 50 μM): 65 % relative to control

Hydroxycitric acid-2-octanoate sodium salt [(d)]
Concentration for 20% reduction of TG amount relative to control (Mouse 3T3-F442A cells [3]): 200 µM

Hydroxycitric acid-2-behenate sodium salt [(h)]
Concentration for 20% reduction of TG amount relative to control (Mouse 3T3-F442A cells [3]): 40 µM

Hydroxycitric acid-2-caprate sodium salt [(e)]
Concentration for 20% reduction of TG amount relative to control (Mouse 3T3-F442A cells [3]): 200 µM

Hydroxycitric acid-2-myristate sodium salt [(g)]
Concentration for 20% reduction of TG amount relative to control (Mouse 3T3-F442A cells [3]): 100 µM

C[N+](C)(C)C[C@H](O)CC(=O)[O-].Cl [(j), L-carnitine hydrochloride, reference compound]
(1/2) × 100 (triglyceride amount / cell survival rate) [4]: 91
Accumulated triglyceride amount (% relative to control): 1 [4]: 93 % relative to control
Cell survival rate (% relative to control): 2 [8]: 102 % relative to control

Hydroxycitric acid calcium salt [(a), reference compound]
Accumulated triglyceride amount (% relative to control) (Mouse 3T3-F442A cells [1]): 98 % relative to control
Determined value: amount of hydroxycitric acid in cell extract [9]: 0.6 nmol/mg protein
Determined value: amount of hydroxycitric acid in dermis [2, 11]: 0.2 nmol/mg skin protein
Determined value: amount of hydroxycitric acid in epidermis [2, 12]: 0.4 nmol/mg skin protein
Concentration for 20% reduction of TG amount relative to control (Mouse 3T3-F442A cells [3]): 1e+06 µM
Cell survival rate (% relative to control): 2 ([5]; 100 μM): 88 % relative to control
Cell survival rate (% relative to control): 2 ([5]; 1 mM): 94 % relative to control
(1/2) × 100 (triglyceride amount / cell survival rate) ([7]; 100 μM): 98
Accumulated triglyceride amount (% relative to control): 1 ([7]; 100 μM): 86 % relative to control
(1/2) × 100 (triglyceride amount / cell survival rate) ([7]; 1 mM): 85
Accumulated triglyceride amount (% relative to control): 1 ([7]; 1 mM): 80 % relative to control

Hydroxycitric acid monomethyl ester-2-palmitate sodium salt [(c)]
Accumulated triglyceride amount (% relative to control) (Mouse 3T3-F442A cells [1]): 84 % relative to control

CCCCCCCCCCCCCCCC(=O)OC(CC(=O)O)(C(=O)O)C(O)C(=O)O (centres unmarked) [hydroxycitric acid-2-palmitate]
Breakdown within adipocytes (in words) [10]: broken down within adipocytes to generate hydroxycitric acid

Hydroxycitric acid-2-laurate sodium salt [(f)]
Concentration for 20% reduction of TG amount relative to control (Mouse 3T3-F442A cells [3]): 150 µM
